For orientation: IC50 means the concentration that inhibits the measured activity by half.

Factor D, sequence (P00746 26-253): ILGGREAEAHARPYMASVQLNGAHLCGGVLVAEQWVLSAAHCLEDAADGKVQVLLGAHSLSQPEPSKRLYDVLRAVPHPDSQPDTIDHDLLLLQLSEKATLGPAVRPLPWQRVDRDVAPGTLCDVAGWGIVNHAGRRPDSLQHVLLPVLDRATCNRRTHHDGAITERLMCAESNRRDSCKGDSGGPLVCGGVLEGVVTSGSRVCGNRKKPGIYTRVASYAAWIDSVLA

This assay has as its target Factor D (Homo sapiens (Human), UniProt P00746). Briefly: Factor D esterolytic assay. To be noted: Z-Lys-SBzl substrate, 100 mM HEPES, 500 mM NaCl, pH 7.5, 10% DMSO; tested a minimum of three times; read-out: Measured Ki (IC50) Value for Compounds: IC50. The format is biochemical. The procedure:
The IC50 value of a compound (i.e., the concentration of the compound that inhibits 50% of the enzymatic activity) was calculated according to the procedure reported in U.S. Pat. No. 6,653,340 B1, e.g., column 74 (incorporated by reference).
Specifically, the compounds were dissolved in a stock solution of DMSO at 10.0 or 100 mM. A portion of this stock solution was added to assay buffer in a final volume of 50 μL. Controls included buffer alone and enzyme solutions to which DMSO was added. Substrate was added to the reaction wells immediately or after incubation at room temperature. The reaction rates were measured spectrophotometrically by the generation of product at 405 nm for 600 sec. Background absorbance at 690 nm was measured and subtracted from the absorbance at 405 nm for each well.
The reaction rate for enzyme alone was compared to the rate of enzyme in the presence of inhibitor and the percent inhibition was calculated as shown below: […]
An established esterolytic assay for the measurement of Factor D activity and inhibition of Factor D activity was used (Kam, C. M.; McRae, B. J.; Harper, J. W.; Niemann, M. A.; Volanakis, J. E.; Powers, J. C. Human complement proteins D, C2, and B Active site mapping with peptide thioester substrates. J Biol. Chem. 1987, 262, 3444-3451). For this assay Z-Lys-SBzl, 1.29 mM (Kim, S.; Narayana, S. V. L; Volanakis, J. E. Mutational analysis of the substrate binding site of human complement Factor D. Biochemistry. 1994, 33, 14393-14399.) was used as the substrate for Factor D ([…]). Hydrolysis of this compound by Factor D liberated a free sulfhydryl group which is then reacted with 5,5′-dithiobis(2nitrobenzoic acid) producing an intense yellow color (Habeeb, A. F. S. A. Reaction of protein sulfhydryl groups with Ellman's Reagent. Methods in Enzymol. 1976, 25, 457-464.). The assays were performed in 96 well microtiter plates and rates of hydrolysis were monitored at 405 nm on a Biotek Synergy H1 plate reader. Hydrolysis rates were reported as change in mOD/min. The assay was conducted in 100 mM HEPES, 500 mM NaCl, pH 7.5 containing 10% DMSO in a final volume of 50 μL per well.
An IC50, a compound concentration which inhibits 50% of the enzymatic activity, was calculated. Compounds in the examples were tested a minimum of three times.
On to `NCc1cccc(-c2cc(CNCC3CC3)cc3cc(COc4ccccc4CC(=O)O)oc23)c1` [Compound 11d, 2-(2-((7-(3-(aminomethyl)phenyl)-5-(((cyclopropylmethyl)amino)methyl)benzofuran-2-yl)methoxy)phenyl)acetic acid], for which the IC50 was less than 1000 nM.

As for `CC(C)n1nc(COc2ccccc2CC(=O)O)c2cc(-c3ccc(CN)cc3)ccc21` [Compound 311c, 2-(2-((5-(4-(aminomethyl)phenyl)-1-isopropyl-1H-indazol-3-yl)methoxy)phenyl)acetic acid], the IC50 was more than 10000 nM.

For `Cc1ccc(CC(=O)O)c(OCc2coc3c(C)cc(-c4cccc(CN)c4)cc23)c1` [Compound 313c, 2-(2-((5-(3-(aminomethyl)phenyl)-7-methylbenzofuran-3-yl)methoxy)-4-methylphenyl)acetic acid], the IC50 was less than 1000 nM.

With `NCc1cccc(-c2ccc3occ(COc4cc(CN)ccc4CC(=O)O)c3c2)c1` [Compound 156c, 2-(4-(aminomethyl)-2-((5-(3-(aminomethyl)phenyl)benzofuran-3-yl)methoxy)phenyl)acetic acid], the IC50 was less than 1000 nM.

For `Cc1c(CN)cccc1-c1ccc2c(c1)c(COc1ccccc1CC(=O)O)nn2C(C)C` [Compound 330c, 2-(2-((5-(3-(aminomethyl)-2-methylphenyl)-1-isopropyl-1H-indazol-3-yl)methoxy)phenyl)acetic acid], the IC50 is less than 1000 nM.

`NCc1cccc(-c2ccc3c(c2)c(COc2ccccc2CC(=O)O)nn3C2CCCC2)c1` [Compound 292c, 2-(2-((5-(3-(aminomethyl)phenyl)-1-cyclopentyl-1H-indazol-3-yl)methoxy)phenyl)acetic acid]: the half-maximal inhibitory concentration (IC50) was less than 1000 nM.

As to `NCc1cccc(-c2cc(OC[C@H]3CCCO3)c3occ(COc4ccccc4CC(=O)O)c3c2)c1` [Compound 76i, (R)-2-(2-((5-(3-(aminomethyl)phenyl)-7-((tetrahydrofuran-2-yl)methoxy)benzofuran-3-yl)methoxy)phenyl)acetic acid], the IC50 is less than 1000 nM.

On to `NCc1cccc(-c2ccc3occ(COc4cc(OC(F)(F)F)ccc4CC(=O)O)c3c2)c1` [Compound 110d, 2-(2-((5-(3-(aminomethyl)phenyl)benzofuran-3-yl)methoxy)-4-(trifluoromethoxy)phenyl)acetic acid], for which the IC50 was less than 1000 nM.

For the molecule `NCc1cccc(-c2ccc3occ(COc4cc(Br)ccc4CC(=O)O)c3c2)c1` [Compound 192b, 2-(2-((5-(3-(aminomethyl)phenyl)benzofuran-3-yl)methoxy)-4-bromophenyl)acetic acid], the IC50 is less than 1000 nM.

Take `NCc1cccc(-c2cc(Cl)cc3c(COc4ccccc4CC(=O)O)coc23)c1` [Compound 193b, 2-(2-((7-(3-(aminomethyl)phenyl)-5-chlorobenzofuran-3-yl)methoxy)phenyl)acetic acid]: the half-inhibitory concentration (IC50) is 1000 to 10000 nM.

Consider `NCc1cccc(-c2cc(C(=O)NCC3CC3)cc3cc(COc4ccccc4CC(=O)O)oc23)c1` [Compound 32d, 2-(2-((7-(3-(aminomethyl)phenyl)-5-((cyclopropylmethyl)carbamoyl)benzofuran-2-yl)methoxy)phenyl)acetic acid], for which the IC50 was less than 1000 nM.

Consider `Cc1oc2ccc(-c3cccc(CN)c3)cc2c1COc1cc(F)ccc1CC(=O)O` [Compound 200c, 2-(2-((5-(3-(aminomethyl)phenyl)-2-methylbenzofuran-3-yl)methoxy)-4-fluorophenyl)acetic acid], for which the IC50 is less than 1000 nM.

As for `CC(C)n1nc(COc2cccc(C(=O)O)c2)c2cc(-c3cccc(CN)c3)ccc21` [Compound 303d, 3-((5-(3-(aminomethyl)phenyl)-1-isopropyl-1H-indazol-3-yl)methoxy)benzoic acid], the concentration for half-maximal inhibition (IC50) is more than 10000 nM.

Turning to `NCc1cccc(-c2ccc3oc(C(=O)O)c(COc4ccccc4CC(=O)O)c3c2)c1` [Compound 55d, 5-(3-(aminomethyl)phenyl)-3-((2-(carboxymethyl)phenoxy)methyl)benzofuran-2-carboxylic acid], the IC50 was less than 1000 nM.

As to `COc1ccc(CC(=O)O)c(OCc2coc3c(OC)cc(-c4cccc(CN)c4)cc23)c1` [Compound 251c, 2-(2-((5-(3-(aminomethyl)phenyl)-7-methoxybenzofuran-3-yl)methoxy)-4-methoxyphenyl)acetic acid], the IC50 is less than 1000 nM.

Take `CC(C)n1nc(COc2ccccc2CC(=O)O)c2cc(-c3ccc(O)c(CN)c3)ccc21` [Compound 317d, 2-(2-((5-(3-(aminomethyl)-4-hydroxyphenyl)-1-isopropyl-1H-indazol-3-yl)methoxy)phenyl)acetic acid]: the IC50 is 1000 to 10000 nM.

In the case of `COCCNc1cc(-c2cccc(CN)c2)cc2c(COc3ccccc3CC(=O)O)coc12` [Compound 296d, 2-(2-((5-(3-(aminomethyl)phenyl)-7-((2-methoxyethyl)amino)benzofuran-3-yl)methoxy)phenyl)acetic acid], the IC50 was less than 1000 nM.

As for `COc1ccc(CC(=O)O)c(OCc2c(C)oc3ccc(-c4cccc([C@H](N)CO)c4)cc23)c1` [Compound 241c, (S)-2-(2-((5-(3-(1-amino-2-hydroxyethyl)phenyl)-2-methylbenzofuran-3-yl)methoxy)-4-methoxyphenyl)acetic acid], the IC50 was less than 1000 nM.

For the molecule `CC(C)c1ccccc1-c1cc(-c2cccc(CN)c2)cc2c(COc3ccccc3CC(=O)O)coc12` [Compound 219c, 2-(2-((5-(3-(aminomethyl)phenyl)-7-(2-isopropylphenyl)benzofuran-3-yl)methoxy)phenyl)acetic acid], the IC50 was less than 1000 nM.

Regarding `NCc1cccc(-c2ccc3oc(CO)c(COc4ccccc4CC(=O)O)c3c2)c1` [Compound 112c, 2-(2-((5-(3-(aminomethyl)phenyl)-2-(hydroxymethyl)benzofuran-3-yl)methoxy)phenyl)acetic acid], the IC50 was less than 1000 nM.

Consider `COc1ccc(CC(=O)O)c(OCc2c(CO)oc3ccc(-c4cccc(CN)c4)cc23)c1` [Compound 214c, 2-(2-((5-(3-(aminomethyl)phenyl)-2-(hydroxymethyl)benzofuran-3-yl)methoxy)-4-methoxyphenyl)acetic acid], for which the IC50 was less than 1000 nM.

As to `NCc1cccc(-c2cc(OCc3nccs3)c3occ(COc4ccccc4CC(=O)O)c3c2)c1` [Compound 196f, 2-(2-((5-(3-(aminomethyl)phenyl)-7-(thiazol-2-ylmethoxy)benzofuran-3-yl)methoxy)phenyl)acetic acid], the IC50 was less than 1000 nM.

Regarding `COc1ccc(CC(=O)O)c(OCc2c(C(C)O)oc3ccc(-c4cccc(CN)c4)cc23)c1` (centres unmarked) [Compound 217c, 2-(2-((5-(3-(aminomethyl)phenyl)-2-(1-hydroxyethyl)benzofuran-3-yl)methoxy)-4-methoxyphenyl)acetic acid], the IC50 was less than 1000 nM.

For `COc1c(-c2ccc3c(c2)c(COc2ccccc2CC(=O)O)nn3C2CCC2)ccnc1CN` [Compound 328d, 2-(2-((5-(2-(aminomethyl)-3-methoxypyridin-4-yl)-1-cyclobutyl-1H-indazol-3-yl)methoxy)phenyl)acetic acid], the IC50 is more than 10000 nM.

With `NCc1cccc(-c2cc(N3CCOCC3)c3occ(COc4ccccc4CC(=O)O)c3c2)c1` [Compound 154c, 2-(2-((5-(3-(aminomethyl)phenyl)-7-morpholinobenzofuran-3-yl)methoxy)phenyl)acetic acid], the IC50 is less than 1000 nM.

For `COc1ccc(CC(=O)O)c(OCc2c(C(C)C)oc3c(NCC4CC4)cc(-c4cccc(CN)c4)cc23)c1` [Compound 295h, 2-(2-((5-(3-(aminomethyl)phenyl)-7-((cyclopropylmethyl)amino)-2-isopropylbenzofuran-3-yl)methoxy)-4-methoxyphenyl)acetic acid], the IC50 is less than 1000 nM.

`Cc1cccc(C)c1-c1cc(-c2cccc(CN)c2)cc2c(COc3ccccc3CC(=O)O)coc12` [Compound 220c, 2-(2-((5-(3-(aminomethyl)phenyl)-7-(2,6-dimethylphenyl)benzofuran-3-yl)methoxy)phenyl)acetic acid]: the half-maximal inhibitory concentration (IC50) is less than 1000 nM.

As for `NCc1cccc(-c2ccc3scc(COc4ccccc4CC(=O)O)c3c2)c1` [Compound 101d, 2-(2-((5-(3-(aminomethyl)phenyl)benzo[b]thiophen-3-yl)methoxy)phenyl)acetic acid], the IC50 was less than 1000 nM.

For `NCc1cccc(-c2cc(Oc3ccccc3)c3occ(COc4ccccc4CC(=O)O)c3c2)c1` [Compound 194f, 2-(2-((5-(3-(aminomethyl)phenyl)-7-phenoxybenzofuran-3-yl)methoxy)phenyl)acetic acid], the IC50 is less than 1000 nM.
